Results reported in ChEMBL document CHEMBL2346598, “Synthesis and pharmacological characterization of 2-(acylamino)thiophene derivatives as metabolically stable, orally effective, positive allosteric modulators of the GABAB receptor” (J Med Chem, 2013).
pEC50, pIC50: −log10 of the molar value. The source made the active and inactive calls. The rule behind the calls is not given here.

Assays:
Mus musculus [1] = assay: Hypnotic effect in DBA mouse assessed as increase in baclofen-induced duration of loss of righting reflex at 300 mg/kg, ig incubated for 30 mins prior to baclofen-challenge relative to vehicle-treated control; format: functional, organism-based; parameters: dose 300 mg/kg
Mus musculus [2] = assay: Hypnotic effect in DBA mouse assessed as increase in baclofen-induced duration of loss of righting reflex at 100 to 300 mg/kg, ip incubated for 30 mins prior to baclofen-challenge relative to vehicle-treated control; format: functional, organism-based
Mus musculus [3] = assay: Hypnotic effect in DBA mouse assessed as potentiation of baclofen-induced loss of righting reflex at 300 mg/kg, ip incubated for 30 mins prior to baclofen-challenge; format: functional, organism-based; parameters: dose 300 mg/kg
Mus musculus [4] = assay: Hypnotic effect in DBA mouse assessed as potentiation of baclofen-induced loss of righting reflex at 100 mg/kg, ip incubated for 30 mins prior to baclofen-challenge; format: functional, organism-based; parameters: dose 100 mg/kg
Mus musculus [5] = assay: Hypnotic effect in ip dosed DBA mouse assessed as increase in baclofen-induced duration of loss of righting reflex incubated for 30 mins prior to baclofen-challenge; format: functional, organism-based
Mus musculus [6] = assay: Hypnotic effect in DBA mouse assessed as reduction in baclofen-induced onset of loss of righting reflex at 100 to 300 mg/kg, ip incubated for 30 mins prior to baclofen-challenge relative to vehicle-treated control; format: functional, organism-based
Mus musculus [7] = assay: Hypnotic effect in ip dosed DBA mouse assessed as reduction in baclofen-induced onset of loss of righting reflex incubated 30 mins prior to baclofen-challenge; format: functional, organism-based
Mus musculus [8] = assay: Hypnotic effect in DBA mouse assessed as potentiation of baclofen-induced loss of righting reflex at 30 mg/kg, ip incubated for 30 mins prior to baclofen-challenge; format: functional, organism-based; parameters: dose 30 mg/kg
Mus musculus [9] = assay: Hypnotic effect in DBA mouse assessed as potentiation of baclofen-induced loss of righting reflex at 10 mg/kg, ip incubated for 30 mins prior to baclofen-challenge; format: functional, organism-based; parameters: dose 10 mg/kg
Mus musculus [10] = assay: Hypnotic effect in DBA mouse assessed as potentiation of baclofen-induced loss of righting reflex at 3 mg/kg, ip incubated for 30 mins prior to baclofen-challenge; format: functional, organism-based; parameters: dose 3 mg/kg
Mus musculus [11] = assay: Hypnotic effect in DBA mouse assessed as potentiation of baclofen-induced loss of righting reflex at 1 mg/kg, ip incubated for 30 mins prior to baclofen-challenge; format: functional, organism-based; parameters: dose 1 mg/kg
Plasma = assay: Metabolic stability in mouse plasma at 5 uM after 30 mins by HPLC-MS analysis; format: ADME, cell-free; settings: 0.5 h
[12] = Drug metabolism in mouse liver microsomes at 5 uM after 60 mins by LC/MS/MS analysis; format: ADME, Microsome; settings: read-out: Drug metabolism
[13] = Intrinsic clearance in mouse liver microsomes assessed per mg protein at 5 uM after 60 mins by LC/MS/MS analysis; format: ADME, Microsome; settings: read-out: CLH
[14] = Elimination rate constant in mouse liver microsomes at 5 uM after 60 mins by LC/MS/MS analysis; format: ADME, Microsome
NIH3T3 = assay: Cytotoxicity against mouse NIH/3T3 cells after 24 hrs by neutral red staining-based UV/visible spectrophotometric analysis; format: cell-based; settings: NIH3T3, 24 h
Rattus norvegicus [15] = species: Rattus norvegicus; assay: (§1) Positive allosteric modulation of GABAB receptor in rat cortical membranes assessed as potentiation of GABA-induced [35S]GTPgammaS binding after 30 mins by liquid scintillation counting analysis; format: functional, cell membranes; settings: Membrane
Rattus norvegicus [16] = species: Rattus norvegicus; assay: Positive allosteric modulation of GABAB receptor in rat cortical membranes assessed as stimulation of [35S]GTPgammaS binding up to 100 uM after 30 mins by liquid scintillation counting analysis; format: functional, cell membranes; settings: Membrane
Rattus norvegicus [17] = species: Rattus norvegicus; assay: Positive allosteric modulation of GABAB receptor in rat cortical membranes assessed as potentiation of GABA-induced [35S]GTPgammaS binding at 25 uM after 30 mins by liquid scintillation counting analysis relative to GABA; format: functional, cell membranes; settings: Membrane
Rattus norvegicus [18] = species: Rattus norvegicus; assay: Positive allosteric modulation of GABAB receptor in rat cortical membranes assessed as potentiation of GABA-induced [35S]GTPgammaS binding at 2.5 uM after 30 mins by liquid scintillation counting analysis relative to GABA; format: functional, cell membranes; settings: Membrane
Mus musculus [19] = assay: Hypnotic effect in DBA mouse assessed as potentiation of baclofen-induced loss of righting reflex at 300 mg/kg, ig incubated for 30 mins prior to baclofen-challenge; format: functional, organism-based; parameters: dose 300 mg/kg
Mus musculus [20] = assay: Hypnotic effect in DBA mouse assessed as increase in pentobarbital-induced duration of loss of righting reflex at 300 mg/kg, ip incubated for 30 mins prior to pentobarbital-challenge; format: functional; settings: route intraperitoneal
Mus musculus [21] = assay: Hypnotic effect in DBA mouse assessed as increase in pentobarbital-induced duration of loss of righting reflex at 100 mg/kg, ip incubated for 30 mins prior to pentobarbital-challenge; format: functional; settings: route intraperitoneal
Mus musculus [22] = assay: Hypnotic effect in DBA mouse assessed as increase in pentobarbital-induced duration of loss of righting reflex at 30 mg/kg, ip incubated for 30 mins prior to pentobarbital-challenge; format: functional; settings: route intraperitoneal
Mus musculus [23] = assay: Hypnotic effect in DBA mouse assessed as reduction in pentobarbital-induced onset of loss of righting reflex at 300 mg/kg, ip incubated for 30 mins prior to pentobarbital-challenge (reference value: 60.0 +/- 0.0 min); format: functional; settings: route intraperitoneal
Mus musculus [24] = assay: Hypnotic effect in DBA mouse assessed as reduction in pentobarbital-induced onset of loss of righting reflex at 100 mg/kg, ip incubated for 30 mins prior to pentobarbital-challenge (reference value: 60.0 +/- 0.0 min); format: functional; settings: route intraperitoneal
Mus musculus [25] = assay: Hypnotic effect in DBA mouse assessed as reduction in pentobarbital-induced onset of loss of righting reflex at 30 mg/kg, ip incubated for 30 mins prior to pentobarbital-challenge (reference value: 60.0 +/- 0.0 min); format: functional; settings: route intraperitoneal
Mus musculus [26] = assay: Hypnotic effect in DBA mouse assessed as potentiation of pentobarbital-induced loss of righting reflex at 300 mg/kg, ip incubated for 30 mins prior to pentobarbital-challenge; format: functional, organism-based; parameters: dose 300 mg/kg
Mus musculus [27] = assay: Hypnotic effect in DBA mouse assessed as potentiation of pentobarbital-induced loss of righting reflex at 100 mg/kg, ip incubated for 30 mins prior to pentobarbital-challenge; format: functional, organism-based; parameters: dose 100 mg/kg
Mus musculus [28] = assay: Hypnotic effect in DBA mouse assessed as potentiation of pentobarbital-induced loss of righting reflex at 30 mg/kg, ip incubated for 30 mins prior to pentobarbital-challenge; format: functional, organism-based; parameters: dose 30 mg/kg
Mus musculus [29] = assay: Hypnotic effect in DBA mouse assessed as reduction in baclofen-induced onset of loss of righting reflex at 300 mg/kg, ig incubated for 30 mins prior to baclofen-challenge relative to vehicle-treated control; format: functional, organism-based; parameters: dose 300 mg/kg
Mus musculus [30] = assay: Hypnotic effect in DBA mouse assessed as increase in baclofen-induced duration of loss of righting reflex over 30 mg/kg, ip incubated for 30 mins prior to baclofen-challenge relative to vehicle-treated control; format: functional, organism-based; parameters: dose 30 mg/kg
Mus musculus [31] = assay: Hypnotic effect in DBA mouse assessed as reduction in baclofen-induced onset of loss of righting reflex over 1 mg/kg, ip incubated for 30 mins prior to baclofen-challenge relative to vehicle-treated control; format: functional, organism-based; parameters: dose 1 mg/kg
[32] = Ratio of compound IC50 to COR628 IC50 for mouse NIH/3T3 cells; format: ADME, cell-based, NIH3T3; settings: read-out: Ratio IC50
[33] = Ratio of compound IC50 to COR627 IC50 for mouse NIH/3T3 cells; format: ADME, cell-based, NIH3T3; settings: read-out: Ratio IC50
Mus musculus [34] = assay: Hypnotic effect in DBA mouse assessed as increase in baclofen-induced duration of loss of righting reflex over 3 mg/kg, ip incubated for 30 mins prior to baclofen-challenge relative to vehicle-treated control; format: functional, organism-based; parameters: dose 3 mg/kg
Mus musculus [35] = assay: Hypnotic effect in DBA mouse assessed as reduction in baclofen-induced onset of loss of righting reflex over 10 mg/kg, ip incubated for 30 mins prior to baclofen-challenge relative to vehicle-treated control; format: functional, organism-based; parameters: dose 10 mg/kg
Rattus norvegicus [36] = species: Rattus norvegicus; assay: Positive allosteric modulation of GABAB receptor in rat cortical membranes assessed as potentiation of GABA-induced [35S]GTPgammaS binding at 30 uM after 30 mins by liquid scintillation counting analysis relative to GABA; format: functional, cell membranes; settings: Membrane
[37] = as §1; format: functional, cell membranes, Membrane
Mus musculus [38] = assay: Hypnotic effect in ip dosed DBA mouse assessed as potentiation of pentobarbital-induced loss of righting reflex incubated for 30 mins prior to pentobarbital-challenge; format: functional, organism-based
Mus musculus [39] = assay: Hypnotic effect in DBA mouse assessed as increase in baclofen-induced duration of loss of righting reflex over 10 mg/kg, ip incubated for 30 mins prior to baclofen-challenge relative to vehicle-treated control; format: functional, organism-based; parameters: dose 10 mg/kg

| Compound | Activity (Mus musculus [1]) | Activity (Mus musculus [3]) | Activity (Mus musculus [4]) | Activity (Mus musculus [5]) | Activity (Mus musculus [7]) | Activity (Mus musculus [8]) | Activity (Mus musculus [9]) | Activity (Mus musculus [10]) | Activity (Mus musculus [11]) | Stability (Plasma) | metabolised at 1 h, 5 µM [12] | microsomal CLint at 5 µM [13] | k el at 1 h, 5 µM [14] | pIC50 (NIH3T3) | Activity (Rattus norvegicus [16]) | Activity (Rattus norvegicus [17]) | Activity (Rattus norvegicus [18]) | Activity (Mus musculus [19]) | Time (Mus musculus [20]) | Activity (Mus musculus [29]) | further results |
| --- | --- | --- | --- | --- | --- | --- | --- | --- | --- | --- | --- | --- | --- | --- | --- | --- | --- | --- | --- | --- | --- |
| CCc1c(C)sc(NC(=O)c2ccc(C)cc2)c1C(=O)OC | Active | Active | Active | Dose-dependent effect | Dose-dependent effect | Active | Active | Active | inactive | Unstable | 28% | 7.73 µL/min/mg | 0.000124 s⁻¹ | 4.02 | inactive | 18.2% | 3.7% | Active | 14 min | Active | Activity (Mus musculus [2]): Active; Activity (Mus musculus [6]): Active; Activity (Rattus norvegicus [15]): inactive; Time (Mus musculus [21]): 11.2 min; Time (Mus musculus [22]): 4.7 min; Time (Mus musculus [23]): 26.7 min; Time (Mus musculus [24]): 43.8 min; Time (Mus musculus [25]): 53.3 min; Activity (Mus musculus [26]): Active; Activity (Mus musculus [27]): inactive; Activity (Mus musculus [28]): inactive |
| CCc1c(C)sc(NC(=O)c2ccc(C(C)(C)C)cc2)c1C(=O)OC | Active | Active | Active | Dose-dependent effect | Dose-dependent effect | Active | Active | Active | Active | Unstable | 32% | 8.98 µL/min/mg | 0.000144 s⁻¹ | 3.85 | inactive | 23.2% | 19% | Active | – | Active | Activity (Mus musculus [30]): Active; Activity (Mus musculus [31]): Active; selectivity ratio [32]: 4; selectivity ratio [33]: 4; Activity (Rattus norvegicus [15]): inactive |
| CCc1c(C)sc(NC(=O)c2ccc(C(F)(F)F)cc2)c1C(=O)OC | Active | Active | Active | Dose-dependent effect | Dose-dependent effect | Active | Active | Active | Active | Unstable | 40% | 12 µL/min/mg | 0.000192 s⁻¹ | 4.27 | inactive | 27.3% | 17.8% | Active | 23.3 min | Active | Activity (Mus musculus [34]): Active; Activity (Mus musculus [35]): Active; Emax (Rattus norvegicus [36]): 60%; pEC50 [37]: 6.55; Time (Mus musculus [21]): 7 min; Time (Mus musculus [22]): 2.3 min; Time (Mus musculus [23]): 31.3 min; Time (Mus musculus [24]): 45.2 min; Time (Mus musculus [25]): 54 min; Activity (Mus musculus [38]): Dose-dependent effect; Activity (Mus musculus [26]): Active; Activity (Mus musculus [27]): inactive; Activity (Mus musculus [28]): inactive |
| CCc1c(C)sc(NC(=O)c2ccc(Cl)cc2)c1C(=O)OC | Active | Active | Active | Dose-dependent effect | Dose-dependent effect | Active | Active | Active | Active | Unstable | 28% | 7.9 µL/min/mg | 0.000127 s⁻¹ | 4.23 | inactive | 18.3% | 9.2% | Active | 7.3 min | Active | Activity (Mus musculus [39]): Active; Activity (Mus musculus [35]): Active; Emax (Rattus norvegicus [36]): 51%; pEC50 [37]: 5.95; Time (Mus musculus [21]): 4.8 min; Time (Mus musculus [22]): 0 min; Time (Mus musculus [23]): 45.8 min; Time (Mus musculus [24]): 51.8 min; Time (Mus musculus [25]): 60 min; Activity (Mus musculus [26]): Active; Activity (Mus musculus [27]): inactive; Activity (Mus musculus [28]): inactive |
